The text below walks through data of patent US8383094B2, “Hepatitis C virus inhibitors” (Bristol-Myers Squibb Company, priority 2008, dated 2013).

The first experiment deals with HCV 1b genotype. As to the kind of experiment: HCV Replicon assay (HCV-neo replicon cells, wild-type). In kind it is cell-based. The note with it: HCV 1b genotype replicon; range class A-D; read-out: 1b EC50 (in μM or range). As to the method: An HCV Replicon assay was utilized in the present disclosure, and was prepared, conducted and validated as described in commonly owned PCT/US2006/022197 and in O′Boyle et. al. Antimicrob Agents Chemother, 2005 April; 49(4):1346-53. Assay methods incorporating luciferase reporters have also been used as described (Apath.com).
HCV-neo replicon cells and replicon cells containing mutations in the NS5A region were used to test the currently described family of compounds. The compounds were determined to have more than 10-fold less inhibitory activity on cells containing mutations than wild-type cells. Thus, the compounds of the present disclosure can be effective in inhibiting the function of the HCV NS5A protein and are understood to be as effective in combinations as previously described in application PCT/US2006/022197 and commonly owned WO/04014852. Further, the compounds of the present disclosure can be effective against the HCV 1b genotype. It should also be understood that the compounds of the present disclosure can inhibit multiple genotypes of HCV. […] In one embodiment, compounds of the present disclosure are inhibitory versus 1a, 1b, 2a, 2b, 3a, 4a, and 5a genotypes.
(In general: In antiviral work, replicon cells carry a viral genome segment that copies itself.)
Turning to `CN(C)C1(C(=O)N2CCC[C@H]2C(=O)Nc2ccc(C#Cc3ccc(NC(=O)[C@@H]4CCCN4C(=O)C4(N(C)C)CCc5ccccc54)cc3)cc2)CCc2ccccc21` (stereo partly drawn) [VN42, (2S,2′S)-N,N′-(1,2-ethynediyldi-4,1-phenylene)bis(1-((1-(dimethylamino)-2,3-dihydro-1H-inden-1-yl)carbonyl)-2-pyrrolidinecarboxamide)], the EC50 (in general, the concentration that produces a half-maximal response) was in the range of 0.00457 to 0.099 µM.

The same experiment, now with this note: Hepatitis C virus, HCV 1b genotype replicon; range class A-D; read-out: 1b EC50 (in μM or range).
As for `O=C(Nc1ccc(C#Cc2ccc(NC(=O)[C@@H]3CCCN3C(=O)[C@H](O)c3ccccc3)cc2)cc1)[C@@H]1CCCN1C(=O)c1nc(Cl)cc2ccccc12` [Example D44, (2S)-1-((3-Chloro-1-isoquinolinyl)carbonyl)-N-(4-((4-((((2S)-1-((2R)-2-hydroxy-2-phenylacetyl)-2-pyrrolidinyl)carbonyl)amino)phenyl)ethynyl)phenyl)-2-pyrrolidinecarboxamide], the EC50 was < 0.00457 µM. For `CN1CCc2ccccc2[C@@H]1C(=O)N1CCC[C@H]1C(=O)Nc1ccc(C#Cc2ccc(NC(=O)[C@@H]3CCCN3C(=O)[C@H]3c4ccccc4CCN3C)cc2)cc1` [VN32, (R,2S,2′S)-N,N′-(4,4′-(ethyne-1,2-diyl)bis(4,1-phenylene))bis(1-((R)-2-methyl-1,2,3,4-tetrahydroisoquinoline-1-carbonyl)pyrrolidine-2-carboxamide)], the EC50 lay within 0.1 to 0.999 µM. With `O=C(Nc1ccc(C#Cc2ccc(NC(=O)C3CC(=O)N(CCc4cccs4)C3)cc2)cc1)C1CC(=O)N(CCc2cccs2)C1` (stereo not shown) [Example D10, N,N′-(1,2-ethynediyldi-4,1-phenylene)bis(5-oxo-1-(2-(2-thienyl)ethyl)-3-pyrrolidinecarboxamide)], the concentration giving a half-maximal response (EC50) was 1 to 10 µM. Same read-out and setting: to `O=C(Nc1ccc(C#Cc2ccc(NC(=O)[C@@H]3CCCN3C(=O)OCc3ccccc3)cc2)cc1)C1CC1` [Example D18, Benzyl (2S)-2-((4-((4-((cyclopropylcarbonyl)amino)phenyl)ethynyl)phenyl)carbamoyl)-1-pyrrolidinecarboxylate] belongs 0.1 to 0.999 µM; to `CN(C)[C@H](C(=O)N1CCC[C@H]1C(=O)Nc1ccc(C#Cc2ccc(NC(=O)[C@@H]3CCCN3C(=O)[C@H](c3ccccc3)N(C)C)cc2)cc1)c1ccccc1` [VN22, (2S,2′S)-N,N′-(1,2-ethynediyldi-4,1-phenylene)bis(1-((2S)-2-(dimethylamino)-2-phenylacetyl)-2-pyrrolidinecarboxamide)], < 0.00457 µM; to `CN(C)c1ccc(C#Cc2ccc(NC(=O)[C@@H]3CCCN3C(=O)[C@@H](c3ccccc3)N(C)C)cc2)cc1` [Example D60, (S)-1-((R)-2-(dimethylamino)-2-phenylacetyl)-N-(4-((4-(dimethylamino)phenyl)ethynyl)phenyl)pyrrolidine-2-carboxamide], 0.1 to 0.999 µM. Regarding `CN(C)[C@H](Cc1ccccc1)C(=O)N1CCC[C@H]1C(=O)Nc1ccc(C#Cc2ccc(NC(=O)[C@@H]3CCCN3C(=O)[C@@H](Cc3ccccc3)N(C)C)cc2)cc1` [VN28, (2S,2′S)-N,N′-(1,2-ethynediyldi-4,1-phenylene)bis(1-((2R)-2-(dimethylamino)-3-phenylpropanoyl)-2-pyrrolidinecarboxamide)], the EC50 was < 0.00457 µM. In the case of `O=C(Nc1ccc(C#Cc2ccc(NC(=O)[C@@H]3CCCN3C(=O)CC3CC3)cc2)cc1)[C@@H]1CCCN1C(=O)CC1CC1` [Example D37, (2S,2′S)-N,N′-(1,2-ethynediyldi-4,1-phenylene)bis(1-(cyclopropylacetyl)-2-pyrrolidinecarboxamide)], the EC50 lay within 0.00457 to 0.099 µM.

The experiment is the same for the next values; noted with them: Hepatitis C virus, HCV 1b genotype replicon; read-out: 1b EC50 (in μM or range).
With `CC(=O)N1CCC[C@H]1C(=O)Nc1ccc(C#Cc2ccc(NC(=O)[C@@H]3CCCN3C(=O)c3cccc4ccccc34)nc2)cc1` [Example D59, (2S)-1-Acetyl-N-(4-((6-((((2S)-1-(1-naphthoyl)-2-pyrrolidinyl)carbonyl)amino)-3-pyridinyl)ethynyl)phenyl)-2-pyrrolidinecarboxamide], the EC50 amounted to 1.48 µM.
